Measured values reported in US20200138921A1, “METHODS OF PREVENTING AND TREATING DISEASES CHARACTERIZED BY SYNAPTIC DYSFUNCTION AND NEURODEGENERATION INCLUDING ALZHEIMER'S DISEASE” (The Trustees of Columbia University in the City of New York, priority 2017, published 2020).

Tests used:
Ube3A [1] = assay: Western blot of Ube3A protein in cultured primary hippocampal neurons; format: cell-based, rat
Protocol: (§1) Hippocampal neuron cultures from both male and female rat embryos (E17-18) were prepared following a slightly modified version of the method of Brewer et al. 1996. Hippocampal neurons were kept in culture at 37° C. with 5% CO2 in Neurobasal medium (ThermoFisher) with B27 (ThermoFisher) supplement and Glutamax (ThermoFisher) and plated at a density of 2.5×10^5 cell/ml on dishes coated with poly-D-lysine (ThermoFisher). For the experiments, neurons were used after 14-21 days in vitro (DIV). Rat neuroblastoma B35 cells were cultured and maintained in DMEM (ThermoFisher) supplemented with 10% fetal bovine serum (FBS; Invitrogen) and Glutamax (ThermoFisher).
(§2) Whole frozen mouse hippocampi, human brain specimens, and cultured cells were homogenized in RIPA buffer (ThermoFisher) supplemented with protease and phosphatase inhibitor cocktail (ThermoFisher), using a Teflon dounce homogenizer and centrifuged at 14,000 rpm for 10 minutes at 4° C. Supernatants were collected, normalized by BCA assay (ThermoFisher), and prepared for loading using sample buffer (SB) 4× (ThermoFisher) and dithiothreitol (DTT) 10× (ThermoFisher).
(§3) Cultured primary hippocampal neurons (14 DIV) were treated with 300 nM of a topoisomerase type I inhibitor, topotecan (TOP) or a vehicle control as described in Huang et al. 2012. Some cells were treated for 24 hours and some for 72 hours. All cells were harvested and whole cell lysates prepared for Western blot analysis of Ube3A and Ephixin-5.

Ephexin-5 = assay: Western blot of Ephexin-5 in cultured primary hippocampal neurons; format: cell-based, rat
Protocol: as §1, §2, §3

RhoA-GTP = assay: Rho-GTPase activity pull-down assay in hippocampal neurons; format: cell-based, rat
Protocol: Rho-GTPase pull-down assays were performed following the manufacturer's protocol (Cytoskeleton, Inc.). Briefly, cells were washed once with ice-cold PBS and lysed with RIPA/M-PER buffer (1:1; ThermoFisher). Lysates were incubated on ice for 5 minutes, and centrifuged (12,000 g) for 5 minutes. 30 μl was used for input and the remaining lysates were incubated with Rhotekin-RBD (RhoA) or PAK-RBD (Rac1) protein beads (25 μl) by rotating for 1 hour at 4° C. Beads were washed with ice-cold PBS (500 μl, 3×) and collected, and bound proteins were eluted with 1× sample buffer (30 μl). Input and eluted samples were then analyzed by gel electrophoresis and Western blotting using either a RhoA or Rac1-specific antibody.
To test whether increasing Ube3A could rescue the effects of oAβ, cultured primary hippocampal neurons (14 DIV) were pretreated with 300 nM of TOP or control PBS. At day 3 the cells were treated with oligomeric Aβ for 6 hours and whole cell lysates prepared for Western blot analysis of Ube3A protein levels and levels of active GTPase levels including RhoA-GTP, Rac1-GTP and Cdc42-GTP.

[2] = test system: primary hippocampal neurons; assay: Dendritic spine density in cultured hippocampal neurons (DiOlistic labeling); format: cell-based, rat; conditions: oAβ for 24 hours
Protocol: (§4) The protocol for diolistic labeling of neurons was adapted from Gan et al. 2000 and Gan et al. 2009. Briefly, 100 mg of tungsten particles (1.1 μm diameter; Bio-Rad) were thoroughly precipitated with 5.0 mg of lipophilic dye (DiI; ThermoFisher) and dissolved in 100 μl of methylene chloride. Dye-coated particles were shot 2-3 times into the cells using the Helios gene gun system (Bio-Rad) and left in 0.1 M PBS overnight to allow dye diffusion along neuronal processes. Cells were post-fixed with 4% paraformaldehyde (Pierce) for 1 hour to preserve staining, then mounted onto glass slides using Gel Mount (Biomeda) and stored at 4° C. in the dark.
(§5) Labeled neurons were imaged using the Laser Scanning Microscope (LSM) 510 Meta confocal microscope (Zeiss), equipped with 40×1.3 NA and 100×1.4 NA oil-immersion objectives. The NIH Image software program ImageJ was used the quantify diolistic-labeled cultured neurons. An average of 12 compressed images (20 μm thick) consisting of pyramidal neurons were quantified for each treatment. Spines were counted with NeuronStudio software in a blinded manner and spine density was represented in number of spine per μm dendritic length. Statistical analysis was performed using the statistics package GraphPad Prism.
(§6) To further test whether increasing Ube3A could rescue the effects of oAβ, cultured primary hippocampal neurons (14 DIV) were pretreated with 300 nM of TOP or control PBS. The neurons were then treated with oAβ for 24 hours, and whole cell lysates prepared for Western blot analysis, or fixed for microscopy.

EphB2 = assay: Western blot of surface expressed EphB2 in hippocampal neurons; format: cell-based, rat; conditions: oAβ treated
Protocol: Enriched primary rat hippocampal neurons, cultured for 21 days in vitro, were treated with synthetic soluble oligomeric Aβ1-42 (hereinafter “oAβ”) for 24 hours. No cell death was detected under these conditions (data not shown).
Since Ube3A is also expressed in astrocytes (Grier et al. 2015), it was determined whether Ube3A levels were also altered in these cells.

Ephexin-1 = assay: Levels or activities of Ephexin-1 in hippocampal neurons; format: cell-based, rat; conditions: hippocampal neurons treated with oAβ (results not shown)
PSD95 = assay: Western blot of PSD95 in hippocampal neurons; format: cell-based, rat; conditions: neurons pretreated with 300 nM TOP, oAβ for 24 hours
Protocol: as §2, §6
(§7) Cells were also assessed for localization of PSD95 and NMDAR1, markers of postsynaptic terminals. Cells treated with TOP had increased levels of PSD95 and NMDAR1 (FIGS. 11B and 11C).

NMDAR1 = assay: Western blot of NMDAR1 in hippocampal neurons; format: cell-based, rat; conditions: neurons pretreated with 300 nM TOP, oAβ for 24 hours
Protocol: as §2, §6, §7

Ube3A [3] = assay: Ube3A protein in hippocampus of wild-type mice after a single TOP injection; format: in vivo; conditions: single bilateral hippocampal injection of TOP 275 μg
Protocol: as §2
(§8) Controls were wild type mice injected with PBS.

wild-type mice = assay: Dendritic spine density in hippocampus of wild-type mice; format: in vivo; conditions: single TOP injection 275 μg
Protocol: as §4, §5, §8

phospho-tau = assay: Western blot of phospho-tau in J20 mice; format: in vivo; conditions: TOP treated J20 mice vs control J20
Description: All chemicals used were of the highest grade available. Antibodies used include the following: rabbit anti-Ube3A (Cell Signaling), mouse anti-RhoA (Santa Cruz), rabbit anti-Arc (Santa Cruz), mouse anti-GluR1 (Millipore), rabbit anti-Ephexin-5 (Pierce and Abcam), rabbit anti-phospho-c-Abl (Cell Signaling), rabbit anti-GAPDH (Cell Signaling), rabbit anti-HA (Cell Signaling), anti-PSD95 (Cell Signaling), rabbit anti-NMDAR1 (Millipore), and anti-phospho-tau PHF13 (Cell Signaling).
as §2

[4] = usual marketed dosages, daily for five days or weekly; cited from earlier work
[5] = neurons 21 DIV, oAβ for 24 hours
[6] = neurons pretreated with 300 nM TOP, oligomeric Aβ for 6 hours at day 3

| Compound | levels of Ube3A protein (Ube3A [1]; [5]) | levels of Ephexin-5 protein (Ephexin-5; hippocampal neurons, Aβ for 8-10 hours) | levels of active RhoA-GTP (RhoA-GTP; [5]) | dendritic spine density ([2]; neurons 21 DIV) | levels of surface expressed EphB2 protein (EphB2) | levels or activities of Ephexin-1 (Ephexin-1) | Ube3A protein levels (Ube3A [1]; neurons 14 DIV, 300 nM TOP, 24 or 72 hours, vs vehicle) | Ube3A protein levels (Ube3A [1]; [6]) | Ephexin-5 level (Ephexin-5; neurons 14 DIV, 300 nM TOP, vs vehicle) | RhoA activity (RhoA-GTP; [6]) | protection against oAβ-induced loss of dendritic spine density ([2]; neurons pretreated with 300 nM TOP) | levels of PSD95 (PSD95) | levels of NMDAR1 (NMDAR1) | persistence of increased Ube3A expression after the single injection (Ube3A [3]) | Ube3A expression in the hippocampus (Ube3A [3]; after 1 month) | dendritic spine density (wild-type mice) | phospho-tau levels (phospho-tau) | hematologic toxicity [4] | nonhematologic toxicity [4] |
| --- | --- | --- | --- | --- | --- | --- | --- | --- | --- | --- | --- | --- | --- | --- | --- | --- | --- | --- | --- |
| oAβ: synthetic soluble oligomeric Aβ1-42 | significant decrease | significant increase | significant increase | significant decrease | decrease | no observation of any differences | – | – | – | – | – | – | – | – | – | – | – | – | – |
| CC[C@@]1(O)C(=O)OCc2c1cc1n(c2=O)Cc2cc3c(CN(C)C)c(O)ccc3nc2-1 [TOP, topotecan] | – | – | – | – | – | – | increased as early as 24 hours and persisted up to three days | increased | significant decrease | decreased | complete protection | increased | increased | up to 5 months | sustained increase | significant increase | decreased | reversible manageable | mild |
